This is an account of results in patent publication US4880789A, “2'-Substituted-4-deoxy-thiazolo(5,4-c)-rifamycin SV derivatives” (Gruppo Lepetit S.P.A., priority 1985, dated 1989).

Converted amounts (≈) assume the structure as drawn. Where two headings read alike, the source gives them in different places.

Assay [1] relates to S. aureus tour L 165. The assay is described as follows: experimental septicemia in mice (S. aureus). The assay is classed as in vivo. Particulars: Staphylococcus aureus, once daily for three days, survival on 10th day. On the procedure:
The antimicrobial activity of the compounds of the invention is also confirmed in "in vivo" tests. The animals (groups of five mice) were infected by intraperitoneal injection of 16-hour broth culture of S. aureus tour L 165. Inocula were adjusted so that untreated animals died of septicemia within 48 hours. Animals were treated once daily for three days starting immediately after infection. On the 10th day the value for the ED50 in mg/kg/day was calculated by the method of […]-KARBER (Finney, D. J., Statistical method in biological assay, page 524. C. Griffin Ltd., London, 1952), on the basis of the percentage of surviving animals at each dose.

Assay [2] concerns Escherichia coli SKF 12140. The assay is described as follows: MIC, two-fold dilution microtiter, E. coli SKF 12140. Format: cell-based. Particulars: Escherichia coli, SKF12140, Iso-Sensitest broth, 18-24 h, 37° C, read-out: MIC.
Assay [3] has as its system Staphylococcus aureus ATCC 6538. The assay is described as follows: MIC, two-fold dilution microtiter, S. aureus ATCC 6538. Format: cell-based. Particulars: Staphylococcus aureus, ATCC6538.
The test system of assay [4] is S. aureus TOUR L 165. The assay is described as follows: MIC, two-fold dilution microtiter, S. aureus TOUR L 165. Format: cell-based, Staphylococcus aureus.
The next assay deals with S. pneumoniae UC 41. Put plainly: MIC, two-fold dilution microtiter, S. pneumoniae UC 41. The assay is classed as cell-based. The conditions noted are these: Streptococcus pneumoniae, UC41, Todd-Hewitt broth, 18-24 h, 37° C, read-out: MIC.
The subject of a further assay is S. faecalis ATCC 7080. The assay is described as follows: MIC, two-fold dilution microtiter, S. faecalis ATCC 7080. The conditions noted are these: Enterococcus faecalis, ATCC7080, 18-24 h, 37° C, read-out: MIC. The assay is classed as cell-based.
Assay [5] deals with Klebsiella pneumoniae ISM. The assay is described as follows: MIC, two-fold dilution microtiter, K. pneumoniae ISM. The assay is classed as cell-based. The conditions noted are these: Klebsiella pneumoniae.
The subject of assay [6] is Proteus vulgaris XI9H ATCC 881. The assay is described as follows: MIC, two-fold dilution microtiter, P. vulgaris. The assay is classed as cell-based. The conditions noted are these: Proteus vulgaris, ATCC881; P. vulgaris XI9H ATCC 881; Iso-Sensitest broth; 18-24 h, 37° C; read-out: MIC.
Assay [7] has as its system Pseudomonas aeruginosa ATCC 10145. Put plainly: MIC, two-fold dilution microtiter, P. aeruginosa ATCC 10145. The assay is classed as cell-based. Particulars: Pseudomonas aeruginosa, ATCC10145; P. aeruginosa ATCC 10145; Iso-Sensitest broth; 18-24 h, 37° C; read-out: MIC.
The test system of assay [8] is Streptococcus pyogenes C203. Put plainly: MIC, two-fold dilution microtiter, S. pyogenes C203. The assay is classed as cell-based. The conditions noted are these: Streptococcus pyogenes, Todd-Hewitt broth, 18-24 h, 37° C, read-out: MIC. On the procedure:
(§1) The minimum inhibitory concentration (MIC) of representative compounds of the invention was determined using two-fold dilution method in microtiter system. The media used were: Todd-Hewitt broth (Difco) for steptococci; Iso-Sensitest broth (Oxoid) for staphylococci and gram-negative bacteria. The final inoculum was about 10^4 cfμ/ml. […] For M. tuberculosis H37 RV the inoculum consisted of 0.5-1% of a 7-9 day culture in Dubos medium. The tests were carried out in Kirschner medium supplemented with 10% horse serum. Observations were made after 7-days incubation at 37° C.

Assay [9] deals with Mycobacterium tuberculosis H37RV ATCC 9360. Put plainly: MIC, M. tuberculosis H37RV, Kirschner medium. The assay is classed as cell-based. Particulars: Mycobacterium tuberculosis, 168 h, 10% horse serum, 7 days, 37° C, read-out: MIC. On the procedure: as §1
A further assay has as its system S. aureus TOUR L 1282. Put plainly: MIC, two-fold dilution microtiter, rifampicin resistant S. aureus TOUR L 1282. Format: cell-based. Particulars: Staphylococcus aureus, TOURL1282, rifampicin resistant strain.
Where [10] appears, read: S. aureus ATCC 6538, Iso-Sensitest broth, 18-24 h, 37° C, read-out: MIC.
Where [11] appears, read: Staphylococcus aureus, TOURL165, S. aureus TOUR L 165, Iso-Sensitest broth, 18-24 h, 37° C, read-out: MIC.
Setting [12] is: Staphylococcus aureus, TOURL165, S. aureus TOUR L 165, supplemented with 30% bovine serum, read-out: MIC.
Where [13] appears, read: K. pneumoniae ISM, Iso-Sensitest broth, 18-24 h, 37° C, read-out: MIC.

Turning to `COC1C=COC2(C)Oc3c(C)c(O)c4c(O)c(c5sc(N6CCCCC6)nc5c4c3C2=O)NC(=O)C(C)=CC=CC(C)C(O)C(C)C(O)C(C)C(OC(C)=O)C1C` (stereo not drawn) [Example 2, 2'-(1"-Piperidinyl) rifamycin P], the ED50 (commonly the midpoint of the dose-response relation) was determined as 0.16 mg/kg with S. aureus tour L 165 [1] (TOURL165, 240 h, sc) and 0.63 mg/kg in the assay on S. aureus tour L 165 [1] (TOURL165, po, 240 h, os). The MIC (in general, the least concentration at which growth counts as inhibited) in assay [2] stood at 12.5 µg/mL (≈ 15.2 µM); in assay [3] (setting [10]) it was 0.003 µg/mL (≈ 0.00365 µM); with S. aureus TOUR L 165 [4] (setting [11]) it was 0.006 µg/mL (≈ 0.0073 µM); in the assay with S. aureus TOUR L 165 [4] (setting [12]) it was 0.2 µg/mL (≈ 0.243 µM); with S. pneumoniae UC 41, 0.05 µg/mL (≈ 0.0608 µM); with S. faecalis ATCC 7080, 1.6 µg/mL (≈ 1.95 µM). Moreover, the MIC is 25 µg/mL (≈ 30.4 µM) in assay [5] (setting [13]); 6.25 µg/mL (≈ 7.6 µM) in assay [6]; 6.25 µg/mL (≈ 7.6 µM) in assay [7]; 0.05 µg/mL (≈ 0.0608 µM) in [8]; 0.2 µg/mL (≈ 0.243 µM) in [9]; above 100 µg/mL with S. aureus TOUR L 1282.

Take `COC1C=COC2(C)Oc3c(C)c(O)c4c(O)c(c5sc(N6CCN(c7ccccc7)CC6)nc5c4c3C2=O)NC(=O)C(C)=CC=CC(C)C(O)C(C)C(O)C(C)C(OC(C)=O)C1C` (stereo not drawn) [Example 1c, 2'(4"-phenyl-1"-piperazinyl) rifamycin P]: the ED50 with S. aureus tour L 165 [1] (TOURL165, 240 h, sc) came out at 0.63 mg/kg; with S. aureus tour L 165 [1] (TOURL165, po, 240 h, os), 2.5 mg/kg. Besides, the minimum inhibitory concentration (MIC) came out at 4 µg/mL (≈ 4.45 µM) in [2]; 0.004 µg/mL (≈ 0.00445 µM) in assay [3] (setting [10]); 0.008 µg/mL (≈ 0.0089 µM) with S. aureus TOUR L 165 [4] (setting [11]); 0.016 µg/mL (≈ 0.0178 µM) in the assay with S. aureus TOUR L 165 [4] (setting [12]); 0.004 µg/mL (≈ 0.00445 µM) with S. pneumoniae UC 41; 1 µg/mL (≈ 1.11 µM) with S. faecalis ATCC 7080. Further, the MIC is above 128 µg/mL in assay [5]; 16 µg/mL (≈ 17.8 µM) in assay [6]; 8 µg/mL (≈ 8.9 µM) in assay [7]; 0.032 µg/mL (≈ 0.0356 µM) in [8]; 1 µg/mL (≈ 1.11 µM) in [9]; above 128 µg/mL with S. aureus TOUR L 1282.

On to `COC1C=COC2(C)Oc3c(C)c(O)c4c(O)c(c5sc(N6CCNCC6)nc5c4c3C2=O)NC(=O)C(C)=CC=CC(C)C(O)C(C)C(O)C(C)C(OC(C)=O)C1C` (stereo not drawn) [Example 4, 2'-(1"-Piperazinyl) rifamycin P], for which the minimal inhibitory concentration (MIC) in assay [2] stood at 8 µg/mL (≈ 9.72 µM); in assay [3], 0.125 µg/mL (≈ 0.152 µM); in the assay on S. aureus TOUR L 165 [4] (S. aureus TOUR L 165, supplemented with 30% bovine serum), 0.125 µg/mL (≈ 0.152 µM); against S. aureus TOUR L 165 [4] (Staphylococcus aureus, TOURL165), 0.125 µg/mL (≈ 0.152 µM); in the assay with S. pneumoniae UC 41 it was 0.064 µg/mL (≈ 0.0778 µM); in the assay on S. faecalis ATCC 7080, 2 µg/mL (≈ 2.43 µM). Further, the MIC in assay [5] (setting [13]) was 16 µg/mL (≈ 19.4 µM); in assay [6], 8 µg/mL (≈ 9.72 µM); in assay [7], 16 µg/mL (≈ 19.4 µM); in assay [8], 0.125 µg/mL (≈ 0.152 µM); with S. aureus TOUR L 1282 it was above 128 µg/mL.

As to `CCOC(=O)N1CCN(c2nc3c(s2)c2c(O)c4c(O)c(C)c5c(c43)C(=O)C(C)(OC=CC(OC)C(C)C(OC(C)=O)C(C)C(O)C(C)C(O)C(C)C=CC=C(C)C(=O)N2)O5)CC1` (stereo not drawn) [Example 1e, 2'(4"-ethoxycarbonyl-1"-piperazinyl) rifamycin P], the minimum inhibitory concentration (MIC) came out at 16 µg/mL (≈ 17.9 µM) in assay [2]; 0.032 µg/mL (≈ 0.0358 µM) in [3] (setting [10]); 0.064 µg/mL (≈ 0.0715 µM) in the assay with S. aureus TOUR L 165 [4] (setting [11]); 0.064 µg/mL (≈ 0.0715 µM) with S. aureus TOUR L 165 [4] (setting [12]); 0.064 µg/mL (≈ 0.0715 µM) in the assay on S. pneumoniae UC 41; 4 µg/mL (≈ 4.47 µM) in the assay on S. faecalis ATCC 7080. Also, the MIC in [5] (setting [13]) was 32 µg/mL (≈ 35.8 µM); in assay [6] it was 16 µg/mL (≈ 17.9 µM); in assay [7] it was 32 µg/mL (≈ 35.8 µM); in [8], 0.064 µg/mL (≈ 0.0715 µM); in assay [9], 2 µg/mL (≈ 2.23 µM); against S. aureus TOUR L 1282, 128 µg/mL (≈ 143 µM).
